Assay results published in patent US11566007B2, “Ras inhibitors” (Revolution Medicines, Inc., priority 2019, dated 2023).
Where two headings read alike, the source gives them in different places.

Experiments:
Type in all cases: biochemical
KRAS G12V = KRAS G12V (Homo sapiens (Human), UniProt P01116+P62937, G12V); experiment: Ras-Raf (BRAF RBD) disruption / FRET / MOA assay, KRAS G12V; conditions: read-out: IC50* KRAS G12V FRET data
In short: (§1)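 Ternary complex formation (Ras–compound–cyclophilin A) displacing BRAF RBD, monitored by TR-FRET. Three hours at 25° C with compound (top 30 μM final), then 1.5 h with the labelled antibodies. Lower ratio than DMSO indicates disruption; IC50 reported.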

KRAS WT = KRAS WT (Homo sapiens (Human), UniProt P01116+P62937); experiment: Ras-Raf (BRAF RBD) disruption / FRET / MOA assay, KRAS WT; conditions: read-out: IC50* KRAS WT FRET data
KRAS WT, sequence (P01116-2 other isoform, or with tags, fused parts or gaps): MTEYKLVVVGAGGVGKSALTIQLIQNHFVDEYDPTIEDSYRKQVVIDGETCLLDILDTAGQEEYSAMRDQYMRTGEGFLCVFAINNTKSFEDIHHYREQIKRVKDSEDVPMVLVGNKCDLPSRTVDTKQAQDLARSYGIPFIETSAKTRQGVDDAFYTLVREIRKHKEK
KRAS WT, sequence (P62937 whole entry): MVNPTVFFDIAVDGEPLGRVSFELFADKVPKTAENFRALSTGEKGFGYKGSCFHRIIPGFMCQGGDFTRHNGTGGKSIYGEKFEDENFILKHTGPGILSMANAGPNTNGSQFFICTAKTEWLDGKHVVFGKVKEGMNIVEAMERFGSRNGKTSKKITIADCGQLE
In short: as §1

KRAS Q61H = KRAS Q61H (Homo sapiens (Human), UniProt P01116+P62937, Q61H); experiment: Ras-Raf (BRAF RBD) disruption / FRET / MOA assay, KRAS Q61H; conditions: class symbols
KRAS Q61H, sequence (P01116-2 other isoform, or with tags, fused parts or gaps Q61H): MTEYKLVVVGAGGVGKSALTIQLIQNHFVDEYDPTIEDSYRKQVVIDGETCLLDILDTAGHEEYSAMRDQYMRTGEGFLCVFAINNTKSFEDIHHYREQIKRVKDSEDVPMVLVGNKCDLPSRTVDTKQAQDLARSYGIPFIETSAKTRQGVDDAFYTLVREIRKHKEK
KRAS Q61H, sequence (P62937 whole entry): as the sequence (P62937 whole entry) above
In short: (§2)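 Compounds were tested as a 10-point 3-fold dilution series from 30 μM final for their ability to drive ternary complex formation between nucleotide-loaded Ras and cyclophilin A, displacing the BRAF RBD. After 3 h at 25° C., anti-His Eu-W1024 (10 nM) and anti-GST allophycocyanin (50 nM) were added for 1.5 h. A TR-FRET ratio decrease versus DMSO gave IC50.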

NRAS Q61K = NRAS Q61K (Homo sapiens (Human), UniProt P01111+P62937, Q61K); experiment: Ras-Raf (BRAF RBD) disruption / FRET / MOA assay, NRAS Q61K
NRAS Q61K, sequence (P01111 whole entry Q61K): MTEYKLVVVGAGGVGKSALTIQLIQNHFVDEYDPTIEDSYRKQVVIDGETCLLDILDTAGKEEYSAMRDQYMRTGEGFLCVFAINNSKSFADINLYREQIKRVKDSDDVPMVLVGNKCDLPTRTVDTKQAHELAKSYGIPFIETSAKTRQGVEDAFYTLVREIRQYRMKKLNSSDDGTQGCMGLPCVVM
NRAS Q61K, sequence (P62937 whole entry): as the sequence (P62937 whole entry) above
In short: as §2

NRAS WT = NRAS WT (Homo sapiens (Human), UniProt P01111+P62937); experiment: Ras-Raf (BRAF RBD) disruption / FRET / MOA assay, NRAS WT
NRAS WT, sequence (P01111 whole entry): as the sequence (P01111 whole entry Q61K) above, with K61Q counted along it
NRAS WT, sequence (P62937 whole entry): as the sequence (P62937 whole entry) above
In short: as §2

K-Ras G12C = K-Ras G12C (Homo sapiens (Human), UniProt P01116+P62937, G12C); experiment: Ras-Raf (BRAF RBD) disruption / FRET / MOA assay, KRAS G12C; conditions: KRAS G12C, Ras-Raf disruption/FRET/MOA assay
K-Ras G12C, sequence (P01116-2 other isoform, or with tags, fused parts or gaps G12C): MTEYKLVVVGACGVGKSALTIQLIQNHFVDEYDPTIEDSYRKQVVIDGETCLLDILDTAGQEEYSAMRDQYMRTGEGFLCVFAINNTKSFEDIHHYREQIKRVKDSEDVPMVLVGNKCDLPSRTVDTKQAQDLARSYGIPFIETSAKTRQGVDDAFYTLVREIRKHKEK
K-Ras G12C, sequence (P62937 whole entry): as the sequence (P62937 whole entry) above
In short: as §1

KRAS G13D = KRAS G13D (Homo sapiens (Human), UniProt P01116+P62937, G13D); experiment: Ras-Raf (BRAF RBD) disruption / FRET / MOA assay, KRAS G13D
KRAS G13D, sequence (P01116-2 other isoform, or with tags, fused parts or gaps G13D): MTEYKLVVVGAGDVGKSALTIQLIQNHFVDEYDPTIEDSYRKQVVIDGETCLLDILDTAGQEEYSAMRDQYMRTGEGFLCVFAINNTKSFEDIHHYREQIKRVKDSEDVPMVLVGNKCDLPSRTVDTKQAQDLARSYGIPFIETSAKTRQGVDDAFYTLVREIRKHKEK
KRAS G13D, sequence (P62937 whole entry): as the sequence (P62937 whole entry) above
In short: as §1

KRAS G12D = KRAS G12D (Homo sapiens (Human), UniProt P01116+P62937, G12D); experiment: Ras-Raf (BRAF RBD) disruption / FRET / MOA assay, KRAS G12D; conditions: Ras-Raf disruption/FRET/MOA assay; class symbols; read-out: KRAS G12D FRET data IC50
KRAS G12D, sequence (P01116-2 other isoform, or with tags, fused parts or gaps G12D): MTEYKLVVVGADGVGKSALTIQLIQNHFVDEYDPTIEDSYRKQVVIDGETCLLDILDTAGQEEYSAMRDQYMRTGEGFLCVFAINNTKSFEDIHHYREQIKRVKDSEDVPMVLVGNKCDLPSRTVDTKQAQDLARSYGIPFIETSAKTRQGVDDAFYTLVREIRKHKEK
KRAS G12D, sequence (P62937 whole entry): as the sequence (P62937 whole entry) above
In short: as §1

KRAS G12S = KRAS G12S (Homo sapiens (Human), UniProt P01116+P62937, G12S); experiment: Ras-Raf (BRAF RBD) disruption / FRET / MOA assay, KRAS G12S; conditions: Ras-Raf disruption/FRET/MOA assay; class symbols; read-out: KRAS G12S FRET data IC50
KRAS G12S, sequence (P01116-2 other isoform, or with tags, fused parts or gaps G12S): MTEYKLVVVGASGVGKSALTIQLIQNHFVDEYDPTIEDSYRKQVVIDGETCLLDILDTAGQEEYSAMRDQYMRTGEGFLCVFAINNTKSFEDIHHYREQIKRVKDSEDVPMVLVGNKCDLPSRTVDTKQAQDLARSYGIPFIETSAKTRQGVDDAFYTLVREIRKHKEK
KRAS G12S, sequence (P62937 whole entry): as the sequence (P62937 whole entry) above
In short: as §1

[1] = Ras-Raf disruption/FRET/MOA assay, read-out: KRAS Q61H FRET data IC50
[2] = NRAS Q61K, Ras-Raf disruption/FRET/MOA assay, read-out: IC50* NRAS Q61K FRET data
[3] = read-out: IC50* NRAS WT FRET data
[4] = read-out: IC50* KRAS G12C FRET data
[5] = read-out: IC50* KRAS G13D FRET data

KRAS G12V, sequence (P01116-2 other isoform, or with tags, fused parts or gaps G12V): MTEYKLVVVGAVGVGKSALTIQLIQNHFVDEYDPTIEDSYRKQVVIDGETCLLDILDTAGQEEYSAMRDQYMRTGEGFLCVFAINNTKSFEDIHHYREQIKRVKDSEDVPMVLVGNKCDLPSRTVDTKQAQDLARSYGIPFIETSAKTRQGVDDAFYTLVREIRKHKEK
KRAS G12V, sequence (P62937 whole entry): as the sequence (P62937 whole entry) above

| Compound | IC50 (KRAS G12V) | IC50 (KRAS WT) | IC50 (KRAS Q61H; [1]) | IC50 (NRAS Q61K; [2]) | IC50 (NRAS WT; [3]) | IC50 (K-Ras G12C; [4]) | IC50 (KRAS G13D; [5]) | IC50 (KRAS G12D) | IC50 (KRAS G12S) | IC50 (KRAS Q61H; KRAS Q61H FRET data IC50, Ras-Raf disruption/FRET/MOA assay) | IC50 (NRAS Q61K) | IC50 (NRAS WT; IC50* NRAS WT FRET data) | IC50 (K-Ras G12C; IC50* KRAS G12C FRET data) | IC50 (KRAS G13D; IC50* KRAS G13D FRET data) |
| --- | --- | --- | --- | --- | --- | --- | --- | --- | --- | --- | --- | --- | --- | --- |
| C=CC(=O)Nc1ncc(C(=O)N(C)[C@H](C(=O)N[C@H]2Cc3cccc(c3)-c3ccc4c(c3)c(c(-c3cccnc3[C@H](C)OC)n4CC)CC(C)(C)COC(=O)[C@@H]3CCCN(N3)C2=O)C(C)C)n1C (atropisomer, axis not shown) [Example A474] | 1 to 10 µM | 1 to 10 µM | 0.1 to 1 µM | 1 to 10 µM | 1 to 10 µM | < 0.01 µM | 1 to 10 µM | > 10 µM | 1 to 10 µM |  |  |  |  |  |
| C=CC(=O)N1CC[C@H](C(=O)N2CC[C@H](C)[C@H]2C(=O)N[C@H]2Cc3cccc(c3)-c3ccc4c(c3)c(c(-c3cccnc3[C@H](C)OC)n4CC)CC(C)(C)COC(=O)[C@@H]3CCCN(N3)C2=O)C1 (atropisomer, axis not shown) [Example A494] | > 10 µM | 1 to 10 µM | 0.1 to 1 µM | 1 to 10 µM | 1 to 10 µM | 0.1 to 1 µM | > 10 µM | > 10 µM | > 10 µM |  |  |  |  |  |
| C=CC(=O)N1CC[C@H](C(=O)N2CCCCC[C@H]2C(=O)N[C@H]2Cc3cccc(c3)-c3ccc4c(c3)c(c(-c3cccnc3[C@H](C)OC)n4CC)CC(C)(C)COC(=O)[C@@H]3CCCN(N3)C2=O)C1 (atropisomer, axis not shown) [Example A496] | > 10 µM | > 10 µM | 1 to 10 µM | 1 to 10 µM | 1 to 10 µM | 1 to 10 µM | > 10 µM | > 10 µM | > 10 µM |  |  |  |  |  |
| CCn1c(-c2cccnc2[C@H](C)OC)c2c3cc(ccc31)-c1cccc(c1)C[C@H](NC(=O)[C@H](C(C)C)N1CC[C@]3(CCN(C(=O)C#CC(C)(C)N(C)C)C3)C1=O)C(=O)N1CCC[C@H](N1)C(=O)OCC(C)(C)C2 (atropisomer, axis not shown) [Example A534, (2S)-2-((S)-7-(4-(dimethylamino)-4-methylpent-2-ynoyl)-1-oxo-2,7-diazaspiro[4.4]nonan-2-yl)-N-((6^3S,4S)-1^1-ethyl-1^2-(2-((S)-1-methoxyethyl)pyridin-3-yl)-10,10-dimethyl-5,7-dioxo-6^1,6^2,6^3,6^4,6^5,6^6-hexahydro-1^1H-8-oxa-1(5,3)-indola-6(1,3)-pyridazina-2(1,3)-benzenacycloundecaphane-4-yl)-3-methylbutanamide] | 1 to 10 µM | 1 to 10 µM | 0.1 to 1 µM | 1 to 10 µM | 1 to 10 µM | < 0.01 µM | 1 to 10 µM | 1 to 10 µM | 1 to 10 µM |  |  |  |  |  |
| C=CC(=O)N1CC[C@H]2[C@@H]1CN2C(=O)N(C)[C@H](C(=O)N[C@H]1Cc2nc(cs2)-c2ccc3c(c2)c(c(-c2cccnc2[C@H](C)OC)n3CC)CC(C)(C)COC(=O)[C@@H]2CCCN(N2)C1=O)C(C)C (atropisomer, axis not shown) [Example A547] | 1 to 10 µM | 0.1 to 1 µM | 0.1 to 1 µM | 0.1 to 1 µM | 0.1 to 1 µM | 0.1 to 1 µM | 1 to 10 µM | 1 to 10 µM | 1 to 10 µM |  |  |  |  |  |
| CCn1c(-c2cccnc2[C@H](C)OC)c2c3cc(ccc31)-c1cccc(c1)C[C@H](NC(=O)[C@H](C(C)C)N1CC[C@@]3(CCN(C(=O)C#C[C@@H]4COCCN4C)C3)C1=O)C(=O)N1CCC[C@H](N1)C(=O)OCC(C)(C)C2 (atropisomer, axis not shown) [Example A549] | 1 to 10 µM | 1 to 10 µM |  |  |  |  |  | > 10 µM | 1 to 10 µM | 0.1 to 1 µM | 1 to 10 µM | 1 to 10 µM | < 0.01 µM | 1 to 10 µM |
| CCn1c(-c2cccnc2[C@H](C)OC)c2c3cc(ccc31)-c1cccc(c1)C[C@H](NC(=O)[C@H](C(C)C)N1CC[C@]3(CCN(C(=O)C#C[C@@]4(N(C)C)CCOC4)C3)C1=O)C(=O)N1CCC[C@H](N1)C(=O)OCC(C)(C)C2 (atropisomer, axis not shown) [Example A560] | 1 to 10 µM | 1 to 10 µM | 0.1 to 1 µM | 1 to 10 µM | 1 to 10 µM | 0.01 to 0.1 µM | 1 to 10 µM | 1 to 10 µM | 0.1 to 1 µM |  |  |  |  |  |
| C=CC(=O)N1C[C@@H]2CN(C(=O)N(C)[C@H](C(=O)N[C@H]3Cc4nc(cs4)-c4ccc5c(c4)c(c(-c4cccnc4[C@H](C)OC)n5CC)CC(C)(C)COC(=O)[C@@H]4CCCN(N4)C3=O)C(C)C)[C@@H]2C1 (atropisomer, axis not shown) [Example A561] | 1 to 10 µM | 1 to 10 µM | 0.1 to 1 µM | 0.1 to 1 µM | 1 to 10 µM | 0.1 to 1 µM | 1 to 10 µM | 1 to 10 µM | 1 to 10 µM |  |  |  |  |  |
| C=CC(=O)N1CCO[C@H]2CN(C(=O)N(C)[C@H](C(=O)N[C@H]3CC4=NN=C(O4)c4ccc5c(c4)c(c(-c4cccnc4[C@H](C)OC)n5CC(F)(F)F)CC(C)(C)COC(=O)[C@@H]4CCCN(N4)C3=O)C(C)C)C[C@H]21 (atropisomer, axis not shown) [Example A576] | > 10 µM | 1 to 10 µM | 1 to 10 µM | 1 to 10 µM | 1 to 10 µM | 0.1 to 1 µM | > 10 µM | > 10 µM | > 10 µM |  |  |  |  |  |
| CO[C@@H](C)c1ncccc1-c1c2c3cc(ccc3n1CC(F)(F)F)-c1nc(co1)C[C@H](NC(=O)[C@H](C(C)C)N(C)C(=O)C1(F)CCN(C(=O)C#CC(C)(C)N(C)C)CC1)C(=O)N1CCC[C@H](N1)C(=O)OCC(C)(C)C2 (atropisomer, axis not shown) [Example A578] | 0.1 to 1 µM | 0.1 to 1 µM | 0.01 to 0.1 µM | 0.1 to 1 µM | 0.1 to 1 µM | < 0.01 µM | 0.1 to 1 µM | 0.1 to 1 µM | 0.1 to 1 µM |  |  |  |  |  |
| CCn1c(-c2cccnc2[C@H](C)OC)c2c3cc(ccc31)-c1cccc(c1)C[C@H](NC(=O)[C@@H](CO[C@H]1CCN(C(=O)C#CC(C)(C)N(C)C)C1)C(C)C)C(=O)N1CCC[C@H](N1)C(=O)OCC(C)(C)C2 (atropisomer, axis not shown) [Example A585] | 1 to 10 µM | 1 to 10 µM | 1 to 10 µM | > 10 µM | 1 to 10 µM | 0.01 to 0.1 µM | > 10 µM | > 10 µM | 1 to 10 µM |  |  |  |  |  |
| CCn1c(-c2cccnc2[C@H](C)OC)c2c3cc(ccc31)C1=CCCN(C1)C[C@H](NC(=O)[C@H](C(C)C)N(C)C(=O)C1(F)CCN(C(=O)C#CC(C)(C)N(C)C)CC1)C(=O)N1CCC[C@H](N1)C(=O)OCC(C)(C)C2 (atropisomer, axis not shown) [Example A591] | 0.1 to 1 µM | 0.1 to 1 µM | 0.1 to 1 µM | 1 to 10 µM | 0.1 to 1 µM | < 0.01 µM | 0.1 to 1 µM | 1 to 10 µM | 0.1 to 1 µM |  |  |  |  |  |
